In general, EC50 refers to the concentration at which the effect is half-maximal.

Among the data in patent US20240246964A1 (Arbutus Biopharma Corporation, priority 2021, published 2024) are EC50 values, retold here.

The target of this experiment is human PD-L1 (Homo sapiens (Human), UniProt Q9NZQ7). Nature of the experiment: T cell activation luciferase reporter cell culture system (T Cell Activation Assay). Format: cell-based. Particulars: luciferase reporter assay; PD-L1 aAPC/CHO-K1 cells with PD-1 effector Jurkat T cells. (Reporter assays use an easily measured gene product as a stand-in for the process of interest.)
Sequence of human PD-L1 (Q9NZQ7 19-290): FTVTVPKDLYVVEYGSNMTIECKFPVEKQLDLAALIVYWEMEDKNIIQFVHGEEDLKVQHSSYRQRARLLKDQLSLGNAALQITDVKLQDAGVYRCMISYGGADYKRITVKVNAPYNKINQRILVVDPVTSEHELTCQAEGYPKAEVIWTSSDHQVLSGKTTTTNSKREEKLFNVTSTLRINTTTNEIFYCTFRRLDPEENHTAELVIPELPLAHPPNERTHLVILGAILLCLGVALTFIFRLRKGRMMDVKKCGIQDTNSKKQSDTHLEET
As for `COc1nc(-c2ccnc(-c3cccc4c3CC[C@@H]4Nc3nc(OC)c(CNC4CCOCC4)cc3C(F)(F)F)c2Cl)ccc1CNC[C@@H]1CCC(=O)N1` [Example 634, (S)-5-((((3′-Chloro-6-methoxy-2′-((S)-1-((6-methoxy-5-(((tetrahydro-2H-pyran-4-yl)amino)methyl)-3-(trifluoromethyl)pyridin-2-yl)amino)-2,3-dihydro-1H-inden-4-yl)-[2,4′-bipyridin]-5-yl)methyl)amino)methyl)pyrrolidin-2-one], a half-maximal effect (EC50) was put at 110 nM.
Consider `COc1cc(-c2nccc(-c3cccc(NC(=O)c4ccc(CNC5CCOCC5)cn4)c3Cl)c2Cl)ccc1CNC1CCOCC1` [Example 674, N-(2-Chloro-3-(3-chloro-2-(3-methoxy-4-(((tetrahydro-2H-pyran-4-yl)amino)methyl)phenyl)pyridin-4-yl)phenyl)-5-(((tetrahydro-2H-pyran-4-yl)amino)methyl)picolinamide], for which the EC50 stood at 337 nM.
`COc1nc(-c2cccc(-c3ccnc(-c4ccc(CNC[C@@H]5CCC(=O)N5)c(OC(F)F)c4)c3Cl)c2Cl)ccc1CNC[C@@H]1CCC(=O)N1` [Example 617, (S)-5-((((6-(2-Chloro-3-(3-chloro-2-(3-(difluoromethoxy)-4-(((((S)-5-oxopyrrolidin-2-yl)methyl)amino)methyl)phenyl)pyridin-4-yl)phenyl)-2-methoxypyridin-3-yl)methyl)amino)methyl)pyrrolidin-2-one] displayed an EC50 of 38.9 nM.
As to `COc1cc(-c2nccc(-c3cccc(-c4ccc(CN5CC6(CNC(=O)C6)C5)c(OC)n4)c3Cl)c2Cl)ccc1CN1CC2(CC(O)C2)C1` [Example 497, 2-((6-(2-Chloro-3-(3-chloro-2-(4-((6-hydroxy-2-azaspiro[3.3]heptan-2-yl)methyl)-3-methoxyphenyl)pyridin-4-yl)phenyl)-2-methoxypyridin-3-yl)methyl)-2,6-diazaspiro[3.4]octan-7-one], the EC50 came out at 30.2 nM.
Then `COc1cc(-c2nccc(-c3cccc(-c4ccc(CNC[C@@H]5CCC(=O)N5)c(OC)n4)c3Cl)c2Cl)ccc1CNC1(C(=O)O)CC1` [Cmpd 121, (S)-1-((4-(3-chloro-4-(2-chloro-3-(6-methoxy-5-((((5-oxopyrrolidin-2-yl)methyl)amino)methyl)pyridin-2-yl)phenyl)pyridin-2-yl)-2-methoxybenzyl)amino)cyclopropane-1-carboxylic acid], with 131 nM; and `COc1cc(-c2nccc(-c3cccc(NC(=O)c4ccc(CNCCO)cn4)c3Cl)c2Cl)ccc1CN1CC2(CNC(=O)C2)C1` [Example 754, N-(2-Chloro-3-(3-chloro-2-(3-methoxy-4-((7-oxo-2,6-diazaspiro[3.4]octan-2-yl)methyl)phenyl)pyridin-4-yl)phenyl)-5-(((2-hydroxyethyl)amino)methyl)picolinamide], with 9.1 nM; and `COc1nc(-c2cccc(-c3ccnc(-c4cc(OC)c5nc(CN6CC(C)(O)C6)nn5c4)c3Cl)c2Cl)ccc1CNC[C@@H]1CCC(=O)N1` [Example 259, (S)-5-((((6-(2-Chloro-3-(3-chloro-2-(2-((3-hydroxy-3-methylazetidin-1-yl)methyl)-8-methoxy-[1,2,4]triazolo[1,5-a]pyridin-6-yl)pyridin-4-yl)phenyl)-2-methoxypyridin-3-yl)methyl)amino)methyl)pyrrolidin-2-one], with 58.6 nM.
Consider `COc1cc(-c2nccc(-c3cccc(-c4ccc(CNCC5(CO)CC5)c(OC)n4)c3Cl)c2Cl)cc2c1CN(CCCF)CC2` [Example 252, (1-((((6-(2-Chloro-3-(3-chloro-2-(2-(3-fluoropropyl)-8-methoxy-1,2,3,4-tetrahydroisoquinolin-6-yl)pyridin-4-yl)phenyl)-2-methoxypyridin-3-yl)methyl)amino)methyl)cyclopropyl)methanol], for which a half-maximal effect (EC50) was put at 54 nM.
The compound `COc1nc(-c2cccc(-c3ccnc(-c4cc(OC)c5nc(CN6CC(C(=O)O)C6)cn5c4)c3Cl)c2Cl)ccc1CNC[C@@H]1CCC(=O)N1` [Example 350, (S)-1-((6-(3-Chloro-4-(2-chloro-3-(6-methoxy-5-((((5-oxopyrrolidin-2-yl)methyl)amino)methyl)pyridin-2-yl)phenyl)pyridin-2-yl)-8-methoxyimidazo[1,2-a]pyridin-2-yl)methyl)azetidine-3-carboxylic acid] yielded an EC50 of 89.2 nM.
With `COc1cc(-c2nccc(-c3cccc(-c4ccc5c(CNC6CCS(=O)(=O)CC6)cn(C)c5n4)c3Cl)c2Cl)ccc1CNC[C@@H]1CCC(=O)N1` [Cmpd 60, (S)-5-(((4-(3-chloro-4-(2-chloro-3-(3-(((1,1-dioxidotetrahydro-2H-thiopyran-4-yl)amino)methyl)-1-methyl-1H-pyrrolo[2,3-b]pyridin-6-yl)phenyl)pyridin-2-yl)-2-methoxybenzyl)amino)methyl)pyrrolidin-2-one], the 50% effective concentration (EC50) was 44.6 nM.
`COc1cc(-c2nccc(-c3cccc(-c4ccc(CNC[C@@H]5CCC(=O)N5)c(OC)n4)c3Cl)c2Cl)ccc1CN1CC[C@H](C(=O)O)C1` [Cmpd 77, (S)-1-(4-(3-chloro-4-(2-chloro-3-(6-methoxy-5-(((((S)-5-oxopyrrolidin-2-yl)methyl)amino)methyl)pyridin-2-yl)phenyl)pyridin-2-yl)-2-methoxybenzyl)pyrrolidine-3-carboxylic acid] came in with an EC50 of 105 nM.
`COc1nc(N[C@H]2CCc3c(-c4nccc(-c5ccc6c(CNC[C@@H]7CCC(=O)N7)cn(C)c6n5)c4Cl)cccc32)c(C(F)(F)F)nc1CNC[C@@H]1CCC(=O)N1` [Example 532, (S)-5-((((6-(3-Chloro-2-((S)-1-((6-methoxy-5-(((((S)-5-oxopyrrolidin-2-yl)methyl)amino)methyl)-3-(trifluoromethyl)pyrazin-2-yl)amino)-2,3-dihydro-1H-inden-4-yl)pyridin-4-yl)-1-methyl-1H-pyrrolo[2,3-b]pyridin-3-yl)methyl)amino)methyl)pyrrolidin-2-one] gave a concentration for a half-maximal effect (EC50) of 143 nM.
Then `COc1cc(-c2nccc(-c3cccc(-c4cnc(CNC[C@@H]5CCC(=O)N5)c(OC)n4)c3Cl)c2Cl)ccc1CNC[C@@H]1CCC(=O)N1` [Cmpd 20, (S)-5-((((5-(2-chloro-3-(3-chloro-2-(3-methoxy-4-(((((S)-5-oxopyrrolidin-2-yl)methyl)amino)methyl)phenyl)pyridin-4-yl)phenyl)-3-methoxypyrazin-2-yl)methyl)amino)methyl)pyrrolidin-2-one], with 22.3 nM; and `COc1cc(-c2nccc(-c3cccc(-c4ccc(CN5CC6(CCOCC6)C5)c(OC)n4)c3Cl)c2Cl)ccc1CNC1CCOCC1` [Example 531, N-(4-(4-(3-(5-((7-oxa-2-azaspiro[3.5]nonan-2-yl)methyl)-6-methoxypyridin-2-yl)-2-chlorophenyl)-3-chloropyridin-2-yl)-2-methoxybenzyl)tetrahydro-2H-pyran-4-amine], with 41.3 nM; and `COc1cc(-c2nccc(-c3cccc(-c4ccc(CNC[C@@H]5CCC(=O)N5)c(OC)n4)c3Cl)c2Cl)ccc1CNC1CCN(C(C)=O)CC1` [Cmpd 109, (S)-5-((((6-(3-(2-(4-(((1-acetylpiperidin-4-yl)amino)methyl)-3-methoxyphenyl)-3-chloropyridin-4-yl)-2-chlorophenyl)-2-methoxypyridin-3-yl)methyl)amino)methyl)pyrrolidin-2-one], with 27.9 nM.
Compound `COCC(=O)N1CCC(NCc2ccc(-c3cccc(-c4ccnc(-c5ccc(CN6CC7(CNC(=O)C7)C6)c(OC)c5)c4Cl)c3Cl)nc2OC)CC1` [Example 490, 2-(4-(3-Chloro-4-(2-chloro-3-(6-methoxy-5-(((1-(2-methoxyacetyl)piperidin-4-yl)amino)methyl)pyridin-2-yl)phenyl)pyridin-2-yl)-2-methoxybenzyl)-2,6-diazaspiro[3.4]octan-7-one] returned a concentration giving a half-maximal response (EC50) of 17.9 nM.
Then `COc1cc(-c2nccc(-c3cccc(-c4ccc(CN5CC6(C5)CN(C(C)=O)C6)c(OC)n4)c3C(F)(F)F)c2Cl)ccc1CN1CC2(C1)CN(C(C)=O)C2` [Example 577, 1-(6-((6-(3-(2-(4-((6-Acetyl-2,6-diazaspiro[3.3]heptan-2-yl)methyl)-3-methoxyphenyl)-3-chloropyridin-4-yl)-2-(trifluoromethyl)phenyl)-2-methoxypyridin-3-yl)methyl)-2,6-diazaspiro[3.3]heptan-2-yl)ethan-1-one], with no less than 10000 nM.
`COc1nc(-c2cccc(-c3ccnc(-c4cc(F)c5c(c4)CN(CC(C)(C)O)CC5)c3Cl)c2Cl)ccc1CNC[C@@H]1CCC(=O)N1` [Cmpd 47, (S)-5-((((6-(2-chloro-3-(3-chloro-2-(5-fluoro-2-(2-hydroxy-2-methylpropyl)-1,2,3,4-tetrahydroisoquinolin-7-yl)pyridin-4-yl)phenyl)-2-methoxypyridin-3-yl)methyl)amino)methyl)pyrrolidin-2-one] displayed a concentration for a half-maximal effect (EC50) of 10000 nM. This counts as double-digit micromolar.
As for `COc1cc(-c2nccc(-c3cccc(-c4ccc(CNC[C@@H]5CCC(=O)N5)c(OC)n4)c3Cl)c2Cl)cc2c1CN(C[C@H]1C[C@H](O)C1)CC2` [Cmpd 133], the EC50 worked out at 21.4 nM.
`COc1nc(-c2ccnc(-c3cccc4c3CCC[C@@H]4Nc3nc(OC)c(CNC4(C(=O)O)CC4)cc3C(F)(F)F)c2Cl)ccc1CNC[C@@H]1CCC(=O)N1` [Example 704] came in with an EC50 of no less than 10000 nM.
As for `COc1cc(-c2nccc(-c3cccc(-c4ccc(CNC[C@H](C)O)c(OC)n4)c3Cl)c2C)ccc1CNC[C@H](C)O` [Example 274, (S)-1-(((6-(2-Chloro-3-(2-(4-((((S)-2-hydroxypropyl)amino)methyl)-3-methoxyphenyl)-3-methylpyridin-4-yl)-phenyl)-2-methoxypyridin-3-yl)-methyl)-amino)propan-2-ol], the figure is 114 nM; as for `COc1cc(-c2nccc(-c3cccc(-c4ccc(CNC[C@@H]5CCC(=O)N5)c(OC)n4)c3Cl)c2Cl)cc2c1CNCC2` [Cmpd 7, (S)-5-((((6-(2-chloro-3-(3-chloro-2-(8-methoxy-1,2,3,4-tetrahydroisoquinolin-6-yl)pyridin-4-yl)phenyl)-2-methoxypyridin-3-yl)methyl)amino)methyl)pyrrolidin-2-one], 53.5 nM.
